Assay results: patent EP2292587A1, “PHARMACEUTICAL COMPOSITION FOR INHIBITING THE TRANSCRIPTION FACTOR INDUCIBLE BY HYPOXIA, MODULATORS OF PATHOLOGICAL PROCESSES OF ANGIOGENESIS, ONCOGENESIS, INFLAMMATION, APOPTOSIS, AND CELLULAR THERAPY” (Fundacion De La Comunidad Valenciana Centro De …, priority 2008, dated 2009)
Entries after “also recorded” stand apart in the source; their conditions may differ.

Experiments:
HT29 [1] = assay: anchorage-independent growth in semisolid agar, HT29; assay type: cell-based, human; settings: 0.5 µM, 10 days, versus DMSO, p ≤ 0.005
Procedure: Anchorage-independent cell growth is a study which allows predicting the tumorigenicity of tumor cells in vivo. Anchorage-independent cell growth studies were performed for HT29, HCT116/p53^+/+ and HCT116/p53^-/- cells in semisolid agar which were monitored daily to determine the efficiency of the formation of colonies in the presence of carrier (DMSO) or FM19G11. To that end, the starting material was 75 x 10^3 cells suspended in semisolid agar, which were maintained until 10 days later. […] A reduction of the formation of colonies in the HCT116/p53^-/- cells is not observed. The growth of colonies was quantified in three independent experiments by means of counting colonies in the 4 x magnification optical field of an inverted optical microscope.

HCT116/p53+/+ = assay: clonicity assay, HCT116/p53+/+; assay type: cell-based; settings: Homo sapiens, HCT-116; stimulated 72 hours, colonies counted after 10 days; read-out: survival IC50
Procedure: (§1) Clonicity assays were conducted to determine the toxicity of FM19G11 in p53-proficient (HT29 and HCT116/p53^+/+) and p53-deficient (HCT116/p53^-/-) tumor cells. Once the HT-29, HCT116/p53^+/+ and HCT116/p53^-/- cells were adhered to the culture plate, they were stimulated with increasing concentrations of FM19G11 (0.5, 1, 5, 10, 20, 50 µM) for 72 hours. After 10 days of stimulation, the number of colonies formed in the plates of treated and untreated cells was determined.
(§2) Results of the clonicity assays of HT29 human colon cancer cells, HCT116 cells treated with FM19G11 were monitored up to 10 after the treatment (Figure 28). The IC50 was determined by extrapolating the percentage with the concentration. FM19G11 was used at concentrations: 0.5, 1, 5, 10, 50, 100, 200 µM

MLH1 and MSH6 = assay: Western blot of mismatch repair proteins and acetyllysine in C17.2 neural stem cells; assay type: cell-based, mouse; settings: 500 nM; for expression of the repair proteins (MMRs: MLH1, MSH6): normoxia or hypoxia
Excerpt: According to the results obtained, the C17.2 neural stem cell subjected to hypoxia experienced repression in the DNA repair (mismatch repair, MMR) system. […] The monoclonal anti MLH1 and MSH6 antibodies were used in the analysis, Nx referring to normoxia and Hx to hypoxia.
The monoclonal antibodies anti-acetyllysine, anti-MLH1 and MSH6 as well as against beta-actin used as a loading control were used in the analysis; wherein Nx refers to Normoxia and Hx to hypoxia.

HCT116/p53-/- cells [2] = assay: cell viability by ATP quantification in colon cancer cells; assay type: cell-based, human; settings: 48 hours, 0.5-1000 µM
Procedure: To determine the effects of FM19G11 on human colon cancer cells (HCT116 and HT29), cell viability assays were carried out in HT29, HCT116/p53^+/+ and HCT116/p53^-/- cells by means of quantifying the ATP which associates with metabolically active cells.

HT29 [3] = assay: clonicity assay, HT29; assay type: cell-based; settings: Homo sapiens, HT-29; stimulated 72 hours, colonies counted after 10 days; read-out: survival IC50
Procedure: as §1, §2

epSPCs = assay: differentiation of epSPCs into oligodendrocytes (immunocytochemistry); assay type: cell-based, rat; settings: 500 nM, 1% O2
Excerpt: The hypoxic condition blocks stem cell differentiation, and it is well acknowledged that this process is due to the activity of the HIF proteins. The exposure of ependymal stem cells to a low concentration of oxygen (1% O2) prevents the progress of differentiation aimed at the oligodendrocyte glial strain, clearly shown by both the morphological characteristics of the culture and by the low expression of typical markers of this cell strain (NG2, RIP, 04).
The analysis of the expression of the cell markers Rip, NG2 and 04 in the presence or absence of FM19G11 under normoxic and/or hypoxic conditions was carried out by immunocytochemical techniques (Figure 15). After fixing the cell culture with paraformaldehyde (4%), it was permeabilized with Triton (0.05%) for 10 minutes, and after blocking non-specific bindings with fetal bovine serum (1%), it was incubated with the corresponding antibodies (acquired from Chemicon, USA). Secondary antibodies conjugated with different fluorochromes, rhodamine in rabbit IgG and fluorescein in mouse IgG, reveal the specific labeling of the primary antibodies. DAPI (Sigma Aldrich Co, UK) was used for the counterstaining of the nuclei.

HCT116/p53-/- cells [4] = assay: cell cycle distribution by flow cytometry, HCT116/p53-/-; assay type: cell-based, human; settings: 0.5, 1, 5, 10 µM, 3 or 6 days
Excerpt: It was investigated if the activation of DDR by FM19G11 caused a delay in the cycle progress through the G1/S phases in HCT116 tumor cells, as has been described for other DNA-damaging agents (.Lim, DS, Kim, ST, Xu, B, Maser, RS, Lin, J, Petrini, JH et al., (2000) ATM phosphorylates p95/nbs1 in an S-phase checkpoint pathway. Nature 404: 613-7.; Jazayeri, A, Falck, J, Lukas, C, Bartek, J, Smith, GC, Lukas, J et al., (2006) ATM- and cell cycle-dependent regulation of ATR in response to DNA double-strand breaks. Nat Cell Biol 8: 37-45; Liu, JS, Kuo, SR, Beerman, TA and Melendy, T, (2003) Induction of DNA damage responses by adozelesin is S phase-specific and dependent on active replication forks. Mol Cancer Ther 2: 41-7; Ranjan, P and Heintz, NH, (2006) S-phase arrest by reactive nitrogen species is bypassed by okadaic acid, an inhibitor of protein phosphatases PP1/PP2A. Free Radic Biol Med 40: 247-59.). The HCT116 p53+/+ and HCT116 p53-/- cells were exposed for 3 or 6 days to the carrier (DMSO) or to FM19G11 (0.5, 1, 5, 10 µM). […] (Figure 24).
A- The HCT116/p53+/+ cells and B-HCT116/p53-/- cells were exposed to different concentrations of FM19G11 (0.5, 1, 5, 10 µM) or carrier for 3 or 6 days to analyze the distribution of cells in the different cell cycle phases by means of flow cytometry. […]

Cc1ccc(C(=O)COC(=O)c2cccc(NC(=O)c3ccc([N+](=O)[O-])cc3[N+](=O)[O-])c2)cc1 [FM19G11, 2-oxo-2-(p-tolyl)ethyl 3-((2,4-dinitro)benzamido)benzoate]
growth of colonies in semisolid agar (HT29 [1]): significant decrease | IC50 (HCT116/p53+/+): 3500 nM | overall degree of acetylation of different proteins (anti-acetyllysine) (MLH1 and MSH6): increases the overall degree of acetylation | expression of the repair proteins (MMRs: MLH1, MSH6) (MLH1 and MSH6): capable of recovering the expression of the MMRs more effectively than TSA; also recorded: recovered | expression of the repair proteins (MMRs: MLH1, MSH6) (MLH1 and MSH6; listed as 19G11): capable of reestablishing the expression | sensitivity (cell viability, ATP) compared to HCT116/p53+/+ or HT29 (HCT116/p53-/- cells [2]): less sensitive | IC50 (HT29 [3]): 1000 nM | expression levels of the oligodendrocyte markers (NG2, RIP, 04) and phenotype (epSPCs): recovers the expression levels | G1/S phase cycle arrest (HCT116/p53-/- cells [4]): did not cause a G1/S phase cycle blocking
